{"source": "paper PMC6429712", "about": "“Discovery of a natural small-molecule compound that suppresses tumor EMT, stemness and metastasis by inhibiting TGFβ/BMP signaling in triple-negative breast cancer” (Journal of Experimental & Clinical Cancer Research : CR, 2019)", "assay_in_all_cases": "in vitro kinase activity assay", "format_in_all_cases": "biochemical", "key": {"[1]": {"target": "BMPR1B (Homo sapiens, UniProt O00238)", "sequence (O00238 14-502)": "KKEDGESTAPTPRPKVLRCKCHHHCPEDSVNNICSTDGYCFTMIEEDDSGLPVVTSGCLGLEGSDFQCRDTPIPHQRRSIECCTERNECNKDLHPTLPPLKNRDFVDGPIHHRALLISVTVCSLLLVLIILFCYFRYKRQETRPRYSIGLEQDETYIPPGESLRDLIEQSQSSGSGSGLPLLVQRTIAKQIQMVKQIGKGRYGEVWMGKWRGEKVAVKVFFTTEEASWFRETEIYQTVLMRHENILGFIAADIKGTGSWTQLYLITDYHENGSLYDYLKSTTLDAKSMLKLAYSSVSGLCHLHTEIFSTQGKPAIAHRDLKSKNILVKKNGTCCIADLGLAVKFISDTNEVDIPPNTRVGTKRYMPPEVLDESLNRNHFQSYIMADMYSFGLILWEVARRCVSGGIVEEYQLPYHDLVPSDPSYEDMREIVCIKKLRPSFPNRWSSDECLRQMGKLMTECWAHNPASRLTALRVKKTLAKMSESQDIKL"}, "[2]": {"target": "T1, BMPR2 (Homo sapiens, UniProt Q13873)", "T1 sequence (Q13873 27-1038)": "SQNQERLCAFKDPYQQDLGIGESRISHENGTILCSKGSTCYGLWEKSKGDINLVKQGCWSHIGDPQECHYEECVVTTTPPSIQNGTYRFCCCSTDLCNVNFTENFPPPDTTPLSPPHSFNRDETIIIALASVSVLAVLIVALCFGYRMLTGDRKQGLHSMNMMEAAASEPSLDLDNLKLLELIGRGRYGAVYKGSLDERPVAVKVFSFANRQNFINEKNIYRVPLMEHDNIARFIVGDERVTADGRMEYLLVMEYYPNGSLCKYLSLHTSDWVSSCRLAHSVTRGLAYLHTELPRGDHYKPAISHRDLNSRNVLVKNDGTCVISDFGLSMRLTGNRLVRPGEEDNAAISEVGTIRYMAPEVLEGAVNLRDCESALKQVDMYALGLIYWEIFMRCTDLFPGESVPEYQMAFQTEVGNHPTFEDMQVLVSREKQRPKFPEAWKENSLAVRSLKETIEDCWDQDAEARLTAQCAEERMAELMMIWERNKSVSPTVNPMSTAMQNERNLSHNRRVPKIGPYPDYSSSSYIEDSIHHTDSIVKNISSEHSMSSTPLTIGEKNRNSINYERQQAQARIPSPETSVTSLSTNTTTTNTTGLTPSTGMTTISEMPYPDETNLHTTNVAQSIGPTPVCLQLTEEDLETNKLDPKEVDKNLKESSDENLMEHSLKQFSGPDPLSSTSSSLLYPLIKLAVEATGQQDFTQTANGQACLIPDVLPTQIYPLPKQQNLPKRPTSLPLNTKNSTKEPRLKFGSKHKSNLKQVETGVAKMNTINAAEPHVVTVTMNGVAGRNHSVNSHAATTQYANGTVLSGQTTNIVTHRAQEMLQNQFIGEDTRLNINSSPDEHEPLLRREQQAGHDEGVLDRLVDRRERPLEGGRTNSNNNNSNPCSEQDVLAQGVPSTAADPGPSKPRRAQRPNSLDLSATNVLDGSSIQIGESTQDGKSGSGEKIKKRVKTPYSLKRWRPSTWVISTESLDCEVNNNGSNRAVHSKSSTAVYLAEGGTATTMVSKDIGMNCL"}, "[3]": {"target": "BMPR1A (Homo sapiens, UniProt P36894)", "sequence (P36894 24-532)": "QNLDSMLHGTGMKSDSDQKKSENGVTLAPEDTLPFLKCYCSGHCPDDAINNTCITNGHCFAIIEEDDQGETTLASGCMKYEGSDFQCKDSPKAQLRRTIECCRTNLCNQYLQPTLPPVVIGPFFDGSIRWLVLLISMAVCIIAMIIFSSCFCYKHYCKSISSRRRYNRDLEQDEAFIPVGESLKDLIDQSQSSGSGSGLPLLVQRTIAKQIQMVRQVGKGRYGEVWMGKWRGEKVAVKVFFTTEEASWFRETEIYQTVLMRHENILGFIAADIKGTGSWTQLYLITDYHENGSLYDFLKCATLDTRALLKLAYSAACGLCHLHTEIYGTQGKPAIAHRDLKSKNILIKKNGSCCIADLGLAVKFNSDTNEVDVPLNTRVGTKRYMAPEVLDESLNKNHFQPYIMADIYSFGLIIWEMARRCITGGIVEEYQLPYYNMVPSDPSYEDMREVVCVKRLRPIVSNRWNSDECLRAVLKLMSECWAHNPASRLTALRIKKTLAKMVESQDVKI"}, "[4]": {"target": "T2, TGFBR1 (Homo sapiens, UniProt P36897)", "T2 sequence (P36897 34-503)": "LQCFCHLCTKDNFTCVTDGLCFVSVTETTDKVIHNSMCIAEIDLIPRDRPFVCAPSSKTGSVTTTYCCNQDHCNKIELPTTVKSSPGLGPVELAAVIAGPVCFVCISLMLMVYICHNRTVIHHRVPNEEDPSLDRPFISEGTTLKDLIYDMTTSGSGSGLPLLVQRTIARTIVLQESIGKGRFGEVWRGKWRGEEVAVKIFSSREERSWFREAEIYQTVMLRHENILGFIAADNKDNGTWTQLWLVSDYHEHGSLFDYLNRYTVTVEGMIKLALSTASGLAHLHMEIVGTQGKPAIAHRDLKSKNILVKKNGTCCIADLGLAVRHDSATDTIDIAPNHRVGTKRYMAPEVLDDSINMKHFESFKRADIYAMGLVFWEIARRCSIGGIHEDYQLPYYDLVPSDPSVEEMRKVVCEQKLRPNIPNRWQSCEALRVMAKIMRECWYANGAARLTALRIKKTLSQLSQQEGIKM"}}, "note": "pIC50: −log10 of the molar value.", "data": [{"molecule": "O=C1Nc2ccc(O)cc2/C1=C\\c1ccc(O)c(O)c1", "note": "[ZL170, (E)-3-(3,4-dihydroxybenzylidene)-5-hydroxyindolin-2-one]", "values": [{"measurement": "pIC50", "setting": "[1]", "result": 5.96}, {"measurement": "pIC50", "setting": "[2]", "result": 6.70}, {"measurement": "pIC50", "setting": "[3]", "result": 6.09}, {"measurement": "pIC50", "setting": "[4]", "result": 5.98}]}]}
